Results taken from patent US20250262201A1, “COMPOUNDS AND METHODS USEFUL FOR STABILIZING PHENYLALANINE HYDROXYLASE MUTATIONS” (Agios Pharmaceuticals, Inc., priority 2022, published 2025).

Each compound was assayed against T1, human PAH with the R408W mutation (Homo sapiens, UniProt P00439, R408W) (assay: Cell Based Phenylalanine Flux Assay). Conditions: A375 R408W cells, 24 hrs with compound, then 20 μM sepiapterin and 800 μM 13C9,15N-Phenylalanine for 4 hours; 13C-Tyrosine by LC-MS; average where tested multiple times.
T1 construct: expressed in transfected cells
T1 sequence (P00439 1-452 R408W): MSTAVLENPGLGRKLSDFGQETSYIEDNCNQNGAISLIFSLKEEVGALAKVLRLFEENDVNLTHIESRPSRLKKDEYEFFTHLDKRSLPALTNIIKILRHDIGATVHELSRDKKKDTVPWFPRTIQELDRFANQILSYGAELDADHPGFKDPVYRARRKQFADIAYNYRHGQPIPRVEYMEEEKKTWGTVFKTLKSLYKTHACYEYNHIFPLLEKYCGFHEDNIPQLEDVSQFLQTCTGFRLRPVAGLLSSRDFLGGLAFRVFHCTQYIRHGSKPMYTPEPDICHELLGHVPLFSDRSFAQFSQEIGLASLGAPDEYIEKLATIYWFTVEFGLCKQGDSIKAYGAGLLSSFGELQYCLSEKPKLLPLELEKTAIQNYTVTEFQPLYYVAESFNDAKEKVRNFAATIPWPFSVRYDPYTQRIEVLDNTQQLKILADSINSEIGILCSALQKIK
Set-up: scale not given here

| AC50 | Compound |
| --- | --- |
| E, E | Nc1nc(C(F)(F)F)c(C(=O)N2CCc3[nH]cnc3C2c2cn3ccccc3n2)o1 (centres unmarked) |

Same assay, conditions: A375 R408W cells, 24 hrs with compound, then 20 μM sepiapterin and 800 μM 13C9,15N-Phenylalanine for 4 hours; 13C-Tyrosine by LC-MS; average where tested multiple times; read-out: AC50

| Compound | AC50 [µM] |
| --- | --- |
| O=C(c1ncn2ccccc12)N1CCc2[nH]cnc2C1c1ccc2ccccc2n1 (centres unmarked) | 1 to 5 |
| Cc1nnc(C(=O)N2CCc3[nH]cnc3C2c2ncc3ccccc3n2)o1 (centres unmarked) | > 5 |
| Cc1nc(N(C)C)oc1C(=O)N1CCc2[nH]cnc2C1c1ccc2ccccc2n1 (centres unmarked) | 1 to 5 |
| Cn1nc(C(F)F)nc1C(=O)N1CCc2[nH]cnc2C1c1cc2ccccc2nn1 (centres unmarked) | 1 to 5 |
| CN(C)c1nnc(C(=O)N2CCc3[nH]cnc3C2c2ncc3ccccc3n2)o1 (centres unmarked) | 1 to 5 |
| O=C(C1CC1(F)F)N1CCc2[nH]cnc2C1c1cn2ccccc2n1 (centres unmarked) | > 5 |
| O=C(c1cnco1)N1CCc2[nH]cnc2C1c1ccc2ccccc2n1 (centres unmarked) | 1 to 5 |
| Cc1nc(N(C)C)oc1C(=O)N1CCc2[nH]cnc2[C@H]1c1ccc2ccccc2n1 (single isomer, unassigned) | > 5 |
| O=C(c1cnn2ccccc12)N1CCc2[nH]cnc2C1c1ccc2ccccc2n1 (centres unmarked) | 1 to 5 |
| O=C(c1ocnc1-c1ccccn1)N1CCc2[nH]cnc2C1c1cn2ccccc2n1 (centres unmarked) | 1 to 5 |
| CN(C)Cc1ccc2c(C(=O)N3CCc4[nH]cnc4C3c3cc4ccccc4nn3)cnn2c1 (centres unmarked) | > 5 |
| O=C(c1nnc(-c2ccc(C(F)(F)F)cc2)o1)N1CCc2[nH]cnc2C1c1ccc2ccccc2n1 (centres unmarked) | > 5 |
| O=C(Cc1cnn2ccccc12)N1CCc2[nH]cnc2C1c1ccc2ccccc2n1 (centres unmarked) | 1 to 5 |
| Cc1nc(N2CCC(F)CC2)oc1C(=O)N1CCc2[nH]cnc2C1c1ccc2ccccc2n1 (centres unmarked) | 1 to 5 |
| Cc1nc(C2CCN2)oc1C(=O)N1CCc2[nH]cnc2C1c1ccc2ccccc2n1 (centres unmarked) | 1 to 5 |
| Cc1nc(-c2cnn(C)c2)oc1C(=O)N1CCc2[nH]cnc2C1c1ncc2ccccc2n1 (centres unmarked) | > 5 |

Results, then the compound that gave them:

| AC50 [µM] | Compound |
| --- | --- |
| > 5 | Cc1nc(C2(O)CC2)oc1C(=O)N1CCc2[nH]cnc2C1c1ccc2ccccc2n1 (centres unmarked) |
| > 5 | Cc1nc(N)oc1C(=O)N1CCc2[nH]cnc2C1c1ccc2ccccc2n1 (centres unmarked) |
| > 5 | CN(C)Cc1ccc2c(C(=O)N3CC(C)(C)c4[nH]cnc4C3c3cc4ccccc4cn3)cnn2c1 (centres unmarked) |
| 1 to 5 | CC(C)(O)c1nc(C2CC2)c(C(=O)N2CCCc3[nH]cnc3C2c2cc3ccccc3cn2)o1 (centres unmarked) |

Same assay, conditions: A375 cells expressing human R408W PAH; 24 hrs compound incubation; 13C-Tyrosine by LC-MS; average where tested multiple times; read-out: AC50

| Compound | AC50 [µM] |
| --- | --- |
| FC(F)(F)c1cnc(N2CCc3[nH]cnc3C2c2ccc3ccccc3n2)nc1 (stereo in doubt) [Example 29, (R)-2-(5-(5-(trifluoromethyl)pyrimidin-2-yl)-4,5,6,7-tetrahydro-1H-imidazo[4,5-c]pyridin-4-yl)quinoline] | < 0.5 |
| O=C(c1cn(-c2ccccn2)nc1Cl)N1CCc2[nH]cnc2C1c1ccc2ccccc2n1 (stereo in doubt) [Example 109, (R)-(3-chloro-1-(pyridin-2-yl)-1H-pyrazol-4-yl)(4-(quinolin-2-yl)-6,7-dihydro-1H-imidazo[4,5-c]pyridin-5(4H)-yl)methanone] | 1 to 5 |
| CC(C)(C)c1ncc(C(=O)N2CCc3[nH]cnc3[C@H]2c2cn3ccccc3n2)s1 [Example 245, (R)-(2-(tert-butyl)thiazol-5-yl)(4-(imidazo[1,2-a]pyridin-2-yl)-6,7-dihydro-1H-imidazo[4,5-c]pyridin-5(4H)-yl)methanone] | 0.5 to 1 |
| Cn1cncc1-c1nc(C(F)F)c(C(=O)N2CCc3[nH]cnc3[C@@H]2c2ncc3ccccc3n2)o1 [Example 281, (R)-(4-(difluoromethyl)-2-(1-methyl-1H-imidazol-5-yl)oxazol-5-yl)(4-(quinazolin-2-yl)-6,7-dihydro-1H-imidazo[4,5-c]pyridin-5(4H)-yl)methanone] | 0.5 to 1 |
| Cc1cccc(-c2ccc3c(C(=O)N4CCc5[nH]cnc5[C@H]4c4cc5ccccc5cn4)cnn3c2)n1 [Example 479, (R)-(4-(isoquinolin-3-yl)-6,7-dihydro-1H-imidazo[4,5-c]pyridin-5(4H)-yl)(6-(6-methylpyridin-2-yl)pyrazolo[1,5-a]pyridin-3-yl)methanone] | < 0.5 |
| Fc1ccc(-c2nnc(N3CCc4[nH]cnc4[C@@H]3c3cc4ccccc4cn3)o2)cc1 [Example 336, (S)-2-(4-fluorophenyl)-5-(4-(isoquinolin-3-yl)-6,7-dihydro-1H-imidazo[4,5-c]pyridin-5(4H)-yl)-1,3,4-oxadiazole] | > 5 |
| Cn1nccc1-c1nnc(C(=O)N2CCc3[nH]cnc3[C@@H]2c2ncc3ccccc3n2)o1 [Example 204, (R)-(5-(1-methyl-1H-pyrazol-5-yl)-1,3,4-oxadiazol-2-yl)(4-(quinazolin-2-yl)-6,7-dihydro-1H-imidazo[4,5-c]pyridin-5(4H)-yl)methanone] | 1 to 5 |
| O=C(CCC1CC1)N1CCc2[nH]cnc2[C@@H]1c1cn2ccccc2n1 [Example 241, (S)-3-cyclopropyl-1-(4-(imidazo[1,2-a]pyridin-2-yl)-6,7-dihydro-1H-imidazo[4,5-c]pyridin-5(4H)-yl)propan-1-one] | > 5 |
| CC(C)(C)c1ncc(C(=O)N2CCc3[nH]cnc3C2c2ccc3ccccc3n2)s1 (stereo in doubt) [Example 4, (S)-(2-(tert-butyl)thiazol-5-yl)(4-(quinolin-2-yl)-6,7-dihydro-1H-imidazo[4,5-c]pyridin-5(4H)-yl)methanone] | > 5 |
| CC(O)c1nc(Br)c(C(=O)N2CCc3[nH]cnc3[C@@H]2c2ccc3ccccc3n2)o1 (single isomer, unassigned) [Example 131] | 1 to 5 |
| O=C(c1oc(C2(O)CC2)nc1C(F)F)N1CCc2[nH]cnc2C1c1ccc2ccccc2n1 (stereo in doubt) [Example 130, (R)-(4-(difluoromethyl)-2-(1-hydroxycyclopropyl)oxazol-5-yl)(4-(quinolin-2-yl)-6,7-dihydro-1H-imidazo[4,5-c]pyridin-5(4H)-yl)methanone] | < 0.5 |
| CC(O)c1nc(Cl)c(C(=O)N2CCc3[nH]cnc3[C@H]2c2ccc3ccccc3n2)o1 (single isomer, unassigned) [Example 137] | < 0.5 |

The next lines start with the values.

| AC50 [µM] | Compound |
| --- | --- |
| < 0.5 | CC(C)(F)c1ncc(C(=O)N2CCc3[nH]cnc3[C@H]2c2cc3ccccc3cn2)s1 [Example 332, (R)-(2-(2-fluoropropan-2-yl)thiazol-5-yl)(4-(isoquinolin-3-yl)-6,7-dihydro-1H-imidazo[4,5-c]pyridin-5(4H)-yl)methanone] |
| < 0.5 | Cn1cc(-c2nnc(C(=O)N3CCc4[nH]cnc4[C@H]3c3cc4ccccc4cn3)o2)cn1 [Example 322, (R)-(4-(isoquinolin-3-yl)-6,7-dihydro-1H-imidazo[4,5-c]pyridin-5(4H)-yl)(5-(1-methyl-1H-pyrazol-4-yl)-1,3,4-oxadiazol-2-yl)methanone] |
| < 0.5 | CC(C)(F)c1ncc(C(=O)N2CCc3[nH]cnc3[C@H]2c2cc3ccccc3cn2)o1 [Example 339, (R)-(2-(2-fluoropropan-2-yl)oxazol-5-yl)(4-(isoquinolin-3-yl)-6,7-dihydro-1H-imidazo[4,5-c]pyridin-5(4H)-yl)methanone] |
| < 0.5 | Cc1nc(-c2ccccn2)oc1C(=O)N1C[C@H](C)c2[nH]cnc2[C@H]1c1cc2ccccc2cn1 [Example 403, ((4R,7S)-4-(isoquinolin-3-yl)-7-methyl-6,7-dihydro-1H-imidazo[4,5-c]pyridin-5(4H)-yl)(4-methyl-2-(pyridin-2-yl)oxazol-5-yl)methanone] |
| > 5 | Cc1ncoc1C(=O)N1CC2(CC2)c2[nH]cnc2[C@@H]1c1cc2ccccc2cn1 [Example 492, (S)-(4′-(isoquinolin-3-yl)spiro[cyclopropane-1,7′-imidazo[4,5-c]pyridin]-5′(1′H,4′H,6′H)-yl)(4-methyloxazol-5-yl)methanone] |
| < 0.5 | O=C(c1ocnc1-c1ccccn1)N1CCc2[nH]cnc2[C@H]1c1cc2ccccc2cn1 [Example 354, (R)-(4-(isoquinolin-3-yl)-6,7-dihydro-1H-imidazo[4,5-c]pyridin-5(4H)-yl)(4-(pyridin-2-yl)oxazol-5-yl)methanone] |
| < 0.5 | O=C(c1cnn2ccc(Cl)cc12)N1CCc2[nH]cnc2[C@H]1c1cc2ccccc2cn1 [Example 462, (R)-(5-chloropyrazolo[1,5-a]pyridin-3-yl)(4-(isoquinolin-3-yl)-6,7-dihydro-1H-imidazo[4,5-c]pyridin-5(4H)-yl)methanone] |
| < 0.5 | Cc1ncoc1C(=O)N1CCc2[nH]cnc2[C@H]1c1cc2ccccc2nn1 [Example 211, (S)-(4-(cinnolin-3-yl)-6,7-dihydro-1H-imidazo[4,5-c]pyridin-5(4H)-yl)(4-methyloxazol-5-yl)methanone] |
| < 0.5 | O=C(c1cnc(-c2ccccn2)s1)N1CCc2[nH]cnc2[C@H]1c1cc2ccccc2cn1 [Example 300, (R)-(4-(isoquinolin-3-yl)-6,7-dihydro-1H-imidazo[4,5-c]pyridin-5(4H)-yl)(2-(pyridin-2-yl)thiazol-5-yl)methanone] |
| 0.5 to 1 | Cc1nc(-c2ccccn2)oc1C(=O)N1CCc2[nH]cnc2[C@H]1c1cc2ccccc2nn1 [Example 208, (S)-(4-(cinnolin-3-yl)-6,7-dihydro-1H-imidazo[4,5-c]pyridin-5(4H)-yl)(4-methyl-2-(pyridin-2-yl)oxazol-5-yl)methanone] |
| < 0.5 | O=C(c1nnc(-c2ccncc2)o1)N1CCc2[nH]cnc2[C@H]1c1cc2ccccc2cn1 [Example 448, (R)-(4-(isoquinolin-3-yl)-6,7-dihydro-1H-imidazo[4,5-c]pyridin-5(4H)-yl)(5-(pyridin-4-yl)-1,3,4-oxadiazol-2-yl)methanone] |
